# In PubChem BioAssay (NCI):
# Where “and” joins values, the source holds several entries; their conditions need not be identical. Equal entries are not always repeated.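 Assay format: 96-well plates, 48-hour exposure. Abbreviation: GI50, concentration required for 50% inhibition of growth. TGI is the concentration that stops growth completely.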
# Legend:
# Assay in all cases: inhibition of tumour cell growth, NCI panel, 48 h
# ACHN renal = tested on: ACHN renal
# OVCAR-5 ovarian = tested on: OVCAR-5 ovarian
# M14 melanoma = tested on: M14 melanoma
# NCI-H522 lung = tested on: NCI-H522 lung
# BT-549 breast = tested on: BT-549 breast
# LOX IMVI melanoma = tested on: LOX IMVI melanoma
# SNB-19 CNS = tested on: SNB-19 CNS
# OVCAR-4 ovarian = tested on: OVCAR-4 ovarian
# SF-295 CNS = tested on: SF-295 CNS
# K-562 leukemia = tested on: K-562 leukemia
compound,measurement,setting,value
CN1C(C(=O)Nc2ccccn2)=C(O)c2ccccc2S1(=O)=O,TGI,ACHN renal,> 100 µM
same,TGI,OVCAR-5 ovarian,> 100 µM
same,TGI,M14 melanoma,> 100 µM
same,TGI,NCI-H522 lung,> 100 µM
same,TGI,BT-549 breast,> 100 µM
same,TGI,LOX IMVI melanoma,> 100 µM
same,TGI,SNB-19 CNS,> 100 µM
same,TGI,OVCAR-4 ovarian,> 100 µM
same,TGI,SF-295 CNS,> 100 µM
Oc1cc(Br)cc2cc(Br)cnc12,TGI,ACHN renal,47.4 µM
same,TGI,M14 melanoma,29.2 µM
same,TGI,NCI-H522 lung,8.2 µM
same,TGI,BT-549 breast,> 100 µM
same,TGI,LOX IMVI melanoma,> 100 µM
same,TGI,SNB-19 CNS,> 100 µM
same,TGI,OVCAR-4 ovarian,9.59 µM
same,TGI,K-562 leukemia,94.2 µM
same,TGI,SF-295 CNS,28 µM
CCCNC(=O)Cn1c(-c2ccccc2)cc2ccccc21,TGI,ACHN renal,> 100 µM
same,TGI,OVCAR-5 ovarian,> 100 µM
same,TGI,M14 melanoma,> 100 µM
same,TGI,NCI-H522 lung,60.1 µM
same,TGI,BT-549 breast,> 100 µM
same,TGI,LOX IMVI melanoma,> 100 µM
same,TGI,SNB-19 CNS,> 100 µM
same,TGI,OVCAR-4 ovarian,> 100 µM
same,TGI,K-562 leukemia,> 100 µM
same,TGI,SF-295 CNS,> 100 µM
Fc1ccccc1C1SCC2=Nc3ccccc3CN21 (stereo not given),TGI,ACHN renal,> 100 µM
same,TGI,OVCAR-5 ovarian,> 100 µM
same,TGI,M14 melanoma,> 100 µM
same,TGI,BT-549 breast,> 100 µM
same,TGI,LOX IMVI melanoma,> 100 µM
same,TGI,SNB-19 CNS,> 100 µM
same,TGI,OVCAR-4 ovarian,> 100 µM
same,TGI,K-562 leukemia,> 100 µM
same,TGI,SF-295 CNS,> 100 µM
O=C(O)c1cc2c(cc1CC(Cc1ccccc1)C(=O)O)CCC2 (stereo not given),TGI,ACHN renal,> 100 µM
same,TGI,OVCAR-5 ovarian,> 100 µM
same,TGI,M14 melanoma,> 100 µM
same,TGI,NCI-H522 lung,> 100 µM
same,TGI,BT-549 breast,> 100 µM
same,TGI,LOX IMVI melanoma,> 100 µM
same,TGI,SNB-19 CNS,> 100 µM
same,TGI,OVCAR-4 ovarian,> 100 µM
same,TGI,K-562 leukemia,> 100 µM
same,TGI,SF-295 CNS,> 100 µM
C=C1C[C@]23CC[C@@H]4C(CO)(CO)CC(=O)C[C@]4(C)[C@@H]2C(O)C[C@H]1C3 (stereo not given in full),TGI,ACHN renal,> 100 µM
same,TGI,OVCAR-5 ovarian,> 100 µM
same,TGI,M14 melanoma,> 100 µM
same,TGI,NCI-H522 lung,> 100 µM
same,TGI,BT-549 breast,> 100 µM
same,TGI,LOX IMVI melanoma,> 100 µM
same,TGI,SNB-19 CNS,> 100 µM
same,TGI,OVCAR-4 ovarian,> 100 µM
same,TGI,K-562 leukemia,> 100 µM
same,TGI,SF-295 CNS,> 100 µM
Cn1cnc([N+](=O)[O-])c1Sc1nncc2[nH]cnc12,TGI,ACHN renal,> 100 µM
same,TGI,OVCAR-5 ovarian,> 100 µM
same,TGI,M14 melanoma,> 100 µM
same,TGI,NCI-H522 lung,> 100 µM
same,TGI,BT-549 breast,> 100 µM
same,TGI,LOX IMVI melanoma,> 100 µM
same,TGI,SNB-19 CNS,> 100 µM
same,TGI,OVCAR-4 ovarian,> 100 µM
same,TGI,K-562 leukemia,> 100 µM
same,TGI,SF-295 CNS,> 100 µM
OCC1=C[C@@](COCc2ccccc2)(OCc2ccccc2)[C@@H](OCc2ccccc2)[C@@H]1OCc1ccccc1,TGI,ACHN renal,> 100 µM
same,TGI,OVCAR-5 ovarian,60.3 µM
same,TGI,M14 melanoma,> 100 µM
same,TGI,NCI-H522 lung,51 µM
same,TGI,BT-549 breast,98.1 µM
same,TGI,LOX IMVI melanoma,21.9 µM
same,TGI,SNB-19 CNS,> 100 µM
same,TGI,OVCAR-4 ovarian,73.3 µM
same,TGI,K-562 leukemia,50.6 µM
same,TGI,SF-295 CNS,46.7 µM
CCCCN=C(OC1C=CCCC1)SC (stereo not given),TGI,ACHN renal,> 100 µM
same,TGI,OVCAR-5 ovarian,> 100 µM
same,TGI,M14 melanoma,> 100 µM
same,TGI,BT-549 breast,> 100 µM
same,TGI,SNB-19 CNS,> 100 µM
same,TGI,OVCAR-4 ovarian,> 100 µM
same,TGI,K-562 leukemia,> 100 µM
same,TGI,SF-295 CNS,> 100 µM
COc1ccc(C2=C(N)c3ccccc3C2=O)cc1,TGI,ACHN renal,> 100 µM
same,TGI,OVCAR-5 ovarian,> 100 µM
same,TGI,M14 melanoma,> 100 µM
same,TGI,NCI-H522 lung,> 100 µM
same,TGI,BT-549 breast,> 100 µM
same,TGI,LOX IMVI melanoma,> 100 µM
same,TGI,SNB-19 CNS,64.3 µM
same,TGI,OVCAR-4 ovarian,> 100 µM
same,TGI,SF-295 CNS,> 100 µM
CC1(C)CN=C(c2ccc3ccccc3c2O)N1,TGI,ACHN renal,> 100 µM
same,TGI,OVCAR-5 ovarian,> 100 µM
same,TGI,M14 melanoma,> 100 µM
same,TGI,BT-549 breast,> 100 µM
same,TGI,LOX IMVI melanoma,> 100 µM
same,TGI,SNB-19 CNS,> 100 µM
same,TGI,OVCAR-4 ovarian,> 100 µM
same,TGI,K-562 leukemia,> 100 µM
same,TGI,SF-295 CNS,9.29 µM
O=C(O)C1(Cc2ccc3c(c2)CCC3)Cc2cc3c(cc2C1)CCC3,TGI,ACHN renal,> 100 µM
same,TGI,OVCAR-5 ovarian,> 100 µM
same,TGI,M14 melanoma,> 100 µM
same,TGI,BT-549 breast,> 100 µM
same,TGI,LOX IMVI melanoma,> 100 µM
same,TGI,SNB-19 CNS,> 100 µM
same,TGI,OVCAR-4 ovarian,> 100 µM
same,TGI,K-562 leukemia,> 100 µM
Cn1c(=O)n2n(c1=O)C1C(=CC2)C2C=CC1n1c(=O)n(C)c(=O)n12 (stereo not given),TGI,ACHN renal,> 100 µM
same,TGI,OVCAR-5 ovarian,> 100 µM
same,TGI,M14 melanoma,> 100 µM
same,TGI,NCI-H522 lung,> 100 µM
same,TGI,BT-549 breast,> 100 µM
same,TGI,LOX IMVI melanoma,> 100 µM
same,TGI,SNB-19 CNS,> 100 µM
same,TGI,K-562 leukemia,> 100 µM
same,TGI,SF-295 CNS,> 100 µM
Cc1cc2nnn(C3CCCO3)c2cc1C (stereo not given),TGI,OVCAR-5 ovarian,> 100 µM
same,TGI,M14 melanoma,> 100 µM
same,TGI,NCI-H522 lung,> 100 µM
same,TGI,BT-549 breast,> 100 µM
same,TGI,K-562 leukemia,> 100 µM
same,TGI,SF-295 CNS,> 100 µM
COC(=O)C[C@H]1[C@]2(C)C3=C(C)[C@H](c4ccoc4)CC3O[C@@H]2[C@@H]2OC(=O)[C@]3(C)CCC(=O)[C@@]1(C)[C@@H]23 (stereo not given in full),TGI,ACHN renal,> 100 µM
same,TGI,OVCAR-5 ovarian,67.3 µM
same,TGI,M14 melanoma,> 100 µM
same,TGI,NCI-H522 lung,91.1 µM
same,TGI,BT-549 breast,> 100 µM
same,TGI,LOX IMVI melanoma,> 100 µM
same,TGI,OVCAR-4 ovarian,> 100 µM
same,TGI,K-562 leukemia,> 100 µM
same,TGI,SF-295 CNS,> 100 µM
COc1cc(/C=C/C=C2\CC(C)C/C(=C\C=C\c3ccc(O)c(OC)c3)C2=O)ccc1O (stereo not given),TGI,ACHN renal,40.8 µM
same,TGI,OVCAR-5 ovarian,28.8 µM
same,TGI,M14 melanoma,46.9 µM
same,TGI,NCI-H522 lung,2.5 µM
same,TGI,BT-549 breast,27.3 µM
same,TGI,LOX IMVI melanoma,65.1 µM
same,TGI,SNB-19 CNS,96.2 µM
same,TGI,OVCAR-4 ovarian,39.9 µM
same,TGI,K-562 leukemia,> 100 µM
Cc1ccc(N=Nc2cc(=O)[nH]c(=O)[nH]2)cc1C,TGI,ACHN renal,24.4 µM
same,TGI,OVCAR-5 ovarian,28.8 µM
same,TGI,M14 melanoma,41.1 µM
same,TGI,BT-549 breast,26.6 µM
same,TGI,LOX IMVI melanoma,3.36 µM
same,TGI,SNB-19 CNS,35.2 µM
same,TGI,OVCAR-4 ovarian,31.8 µM
same,TGI,K-562 leukemia,> 100 µM
same,TGI,SF-295 CNS,28.7 µM
Cc1cc(=O)[nH]c(S(=O)(=O)NC(=S)Nc2ccc(Br)cc2)n1,TGI,ACHN renal,> 100 µM
same,TGI,OVCAR-5 ovarian,> 100 µM
same,TGI,M14 melanoma,> 100 µM
same,TGI,NCI-H522 lung,70 µM
same,TGI,BT-549 breast,> 100 µM
same,TGI,SNB-19 CNS,> 100 µM
same,TGI,OVCAR-4 ovarian,> 100 µM
same,TGI,SF-295 CNS,> 100 µM
CCCCC[C@@H]1OC(=O)[C@@]2(CC3c4ccccc4C2c2ccccc23)[C@H]1C(=O)OC,TGI,ACHN renal,> 100 µM
same,TGI,OVCAR-5 ovarian,> 100 µM
same,TGI,M14 melanoma,> 100 µM
same,TGI,BT-549 breast,> 100 µM
same,TGI,LOX IMVI melanoma,> 100 µM
same,TGI,SNB-19 CNS,> 100 µM
same,TGI,OVCAR-4 ovarian,> 100 µM
same,TGI,K-562 leukemia,> 100 µM
same,TGI,SF-295 CNS,> 100 µM
Nc1ncnc2c(C3OC(CO)C(O)C3O)c[nH]c12 (stereo not given),GI50,OVCAR-5 ovarian,< 0.0119 µM
same,TGI,OVCAR-5 ovarian,0.657 µM and 0.675 µM
same,TGI,M14 melanoma,0.336 µM and 0.225 µM
same,TGI,NCI-H522 lung,0.0601 µM and 0.0389 µM
same,TGI,BT-549 breast,0.237 µM and 0.297 µM
same,TGI,LOX IMVI melanoma,0.0274 µM and < 0.0155 µM
same,TGI,SNB-19 CNS,8.69 µM
same,TGI,OVCAR-4 ovarian,0.705 µM and 0.741 µM
same,TGI,K-562 leukemia,0.116 µM and 0.0193 µM
same,TGI,SF-295 CNS,1.02 µM
CC[N+]1(C)CCC(O)(/C=C/c2ccc(Cl)c(Cl)c2)C(C(=O)/C=C/c2ccc(Cl)c(Cl)c2)C1 (stereo not given),TGI,ACHN renal,4.15 µM
same,TGI,OVCAR-5 ovarian,7.13 µM
same,TGI,M14 melanoma,> 23.3 µM
same,TGI,NCI-H522 lung,3.34 µM
same,TGI,BT-549 breast,7.44 µM
same,TGI,LOX IMVI melanoma,2.84 µM
same,TGI,SNB-19 CNS,17.3 µM
same,TGI,K-562 leukemia,4.07 µM
same,TGI,SF-295 CNS,13.9 µM
O=c1oc2ccccc2cc1-c1nc2ccccc2s1,TGI,ACHN renal,> 20.1 µM
same,TGI,OVCAR-5 ovarian,65.3 µM
same,TGI,M14 melanoma,> 47.6 µM
same,TGI,NCI-H522 lung,21.5 µM
same,TGI,BT-549 breast,46.4 µM
same,TGI,LOX IMVI melanoma,24.2 µM
same,TGI,OVCAR-4 ovarian,29 µM
CCCCCCCCCCCOCCC1C(C(C)OCCN2CCCC2)OC2OC(C)(C)OC21 (stereo not given),TGI,ACHN renal,10.8 µM
same,TGI,OVCAR-5 ovarian,8.94 µM
same,TGI,M14 melanoma,1.01 µM
same,TGI,NCI-H522 lung,1.05 µM
same,TGI,BT-549 breast,7.76 µM
same,TGI,LOX IMVI melanoma,2.93 µM
same,TGI,SNB-19 CNS,13.7 µM
same,TGI,OVCAR-4 ovarian,22.3 µM
same,TGI,SF-295 CNS,5.71 µM
